Laboratory results taken from EP2179735A1 (WORLD-TRADE IMPORT-EXPORT, WTIE, A.G., priority 2007, dated 2009).

Experiments:
[1] = test system: convulsions induced (MES); experiment: MES test (convulsions produced by electroshocks) in mice, drugs alone and in combination, isobolographic analysis; format: in vivo
Procedure: MES test in rodents is broadly accepted as an experimental model of tonic-clonic convulsions or certain partial convulsions with or without secondary generalization. Brain concentrations were also assessed with anti-epilepsy compounds to monitor whether effects result in a pharmacodynamic and/or pharmacokinetic interaction.
Tests were carried out in Swiss, male, adult, albine mice with a weight between 22-26 gr.
Firstly, separately administered medicament effects were studied.

[2] = cited from earlier work
[3] = cited from earlier work; remark: listed apart in the source
[4] = in vivo; cited from earlier work
[5] = CZP 20 mg/kg peritoneally, 30 minutes before MES test
[6] = CZP 25 mg/kg peritoneally, 30 minutes before MES test
[7] = CZP 30 mg/kg peritoneally, 30 minutes before MES test
[8] = CZP 35 mg/kg peritoneally, 30 minutes before MES test
[9] = CZP 40 mg/kg peritoneally, 30 minutes before MES test
[10] = LTG 3 mg/kg peritoneally, 60 minutes before MES test
[11] = LTG 4 mg/kg peritoneally, 60 minutes before MES test
[12] = LTG 5 mg/kg peritoneally, 60 minutes before MES test
[13] = LTG 6 mg/kg peritoneally, 60 minutes before MES test
[14] = LTG 8 mg/kg peritoneally, 60 minutes before MES test

O=C1CN=C(c2ccccc2Cl)c2cc([N+](=O)[O-])ccc2N1 [CZP, Clonazepam]
% (Percentage of protection against MES test) [1, 5]: 12.5% | P/T (Number of protected animals against electroconvulsion / Total number of animals challenged with MES test) [1, 5]: 1/8 | % (Percentage of protection against MES test) [1, 6]: 25% | P/T (Number of protected animals against electroconvulsion / Total number of animals challenged with MES test) [1, 6]: 2/8 | % (Percentage of protection against MES test) [1, 7]: 50% | P/T (Number of protected animals against electroconvulsion / Total number of animals challenged with MES test) [1, 7]: 4/8 | % (Percentage of protection against MES test) [1, 8]: 75% | P/T (Number of protected animals against electroconvulsion / Total number of animals challenged with MES test) [1, 8]: 6/8 | % (Percentage of protection against MES test) [1, 9]: 100% | P/T (Number of protected animals against electroconvulsion / Total number of animals challenged with MES test) [1, 9]: 8/8 | bioavailability ([2]; orally administered): 90% | recovered in urine in unaltered form ([2]; urine, po): Less than 0.5% | attachment to plasma proteins [3]: 85%

Nc1nnc(-c2cccc(Cl)c2Cl)c(N)n1 [LTG, Lamotrigine]
% (Percentage of protection against MES test) [1, 10]: 0% | P/T (Number of protected animals against electroconvulsion / Total number of animals challenged with MES test) [1, 10]: 0/8 | % (Percentage of protection against MES test) [1, 11]: 25% | P/T (Number of protected animals against electroconvulsion / Total number of animals challenged with MES test) [1, 11]: 2/8 | % (Percentage of protection against MES test) [1, 12]: 50% | P/T (Number of protected animals against electroconvulsion / Total number of animals challenged with MES test) [1, 12]: 4/8 | % (Percentage of protection against MES test) [1, 13]: 75% | P/T (Number of protected animals against electroconvulsion / Total number of animals challenged with MES test) [1, 13]: 6/8 | % (Percentage of protection against MES test) [1, 14]: 100% | P/T (Number of protected animals against electroconvulsion / Total number of animals challenged with MES test) [1, 14]: 8/8 | removed without changes by feces ([2]; feces): 2% | drug unalteredly removed ([2]; in vivo): 10% | attachment to plasma proteins [3]: about 55% | adverse event: asthenia [4]: 10% | adverse event: ataxia [4]: 11% | adverse event: diplopy [4]: 14% | adverse event: generalized allergic rash [4]: 2-3% | adverse event: headache [4]: 12% | adverse event: skin rash [4]: 3% | adverse event: somnolence [4]: 13% | adverse event: vertigo [4]: 14%
